Earlier results in patent US20080280370A1, “METHODS AND COMPOSITIONS FOR DETECTING […] METABOLITES THEREOF” (priority 2007, published 2008).

Legend:
[1] = biological target: T1, EPSPS (enolpyruvylshikimate-3-phosphate synthase) enzyme (Arabidopsis thaliana, UniProt P05466); conditions: enzyme required for biosynthesis of aromatic amino acids in plants
T1 sequence (P05466 77-520): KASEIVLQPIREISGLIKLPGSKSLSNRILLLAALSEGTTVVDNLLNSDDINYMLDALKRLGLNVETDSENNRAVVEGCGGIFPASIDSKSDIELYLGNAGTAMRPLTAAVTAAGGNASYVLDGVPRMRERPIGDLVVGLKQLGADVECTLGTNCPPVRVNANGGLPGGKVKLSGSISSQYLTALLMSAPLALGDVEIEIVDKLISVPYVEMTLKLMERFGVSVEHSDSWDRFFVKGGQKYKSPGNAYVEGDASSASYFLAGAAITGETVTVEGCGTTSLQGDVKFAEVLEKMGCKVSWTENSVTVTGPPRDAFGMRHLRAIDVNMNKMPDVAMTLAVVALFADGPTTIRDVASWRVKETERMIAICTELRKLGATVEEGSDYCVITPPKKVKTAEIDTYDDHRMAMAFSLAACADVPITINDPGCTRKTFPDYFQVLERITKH

plants = conditions: metabolite formed by glyat acetylation; Castle et al. (2004)

SMILES	Effect on EPSPS enzyme [1]	Phytotoxicity (plants)
O=C(O)CNCP(=O)(O)O [glyphosate, N-(phosphonomethyl)glycine]	inhibits	
CC(=O)N(CC(=O)O)CP(=O)(O)O [N-acetylglyphosate, N-Acetyl-N-(phosphonomethyl)glycine]		non-phytotoxic
